Measured values reported in patent US20250059196A1 (SHANGHAI HANSOH BIOMEDICAL CO., LTD., priority 2021, published 2025).

Assays:
[1] = system: OCI-Ly3 cells; experiment: Inhibition of proliferation of OCI-Ly3 cells (CellTiter-Glo); format: cell-based, human; settings: Homo sapiens, 96 h incubation, read-out: Inhibition test of proliferation of OCI-Ly3 cells IC50
Procedure, shortened: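 OCI-Ly3 cells were plated and dosed the next day with 9 concentrations in 3-fold dilutions from 1000 nM to 0.15 nM. Cells were incubated 96 h, and viability was read by CellTiter-Glo luminescence. IC50 was fitted by four-parameter variable-slope log(inhibitor)-response regression.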

[2] = molecular target: Recombinant human MALT1/MLT protein (Homo sapiens (Human), UniProt Q9UDY8); experiment: Inhibitory effect on MALT1 enzyme activity (Ac-LRSR-AMC substrate, fluorescence 460 nm); format: biochemical; settings: 10 nM FL MALT1, Ac-LRSR-AMC substrate, 50 min pre-incubation, 4 h reaction
Procedure, shortened: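 Full-length MALT1 (10 nM) pre-incubated 50 min at room temperature with compound (11-point 3-fold series from 1000 nM), then 4 h reaction with […] Ac-LRSR-AMC in Tris pH 7.5, 0.6 M citrate, DTT, EDTA, BSA, 1.5% DMSO. Fluorescence at 460 nm; IC50 from four-parameter fit.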

[3] = Caco-2 bidirectional permeability test; settings: human, Caco-2
Method: The purpose of this experiment is to test the bidirectional permeability of the compound through the Caco-2 cell model and evaluate whether the compound is transported by efflux transporters.
Liquid chromatography-mass spectrometer, centrifuge, vortexer, pipette, 96-well test plate (HTS Transwell Plate), acetonitrile solution containing internal standard, Caco-2 cells (ATCC), Hank's balance solution (HBSS), fluorescent yellow (LY), dimethyl sulfoxide (DMSO).
108 μL of transport buffer (HBSS containing 10 μM of the example compound) was added to the administration end of A to B. • b. 300 μL of transport buffer (HBSS containing DMSO) was added to the receiving end of A to B. • c. 300 μL of transport buffer (HBSS containing 10 μM example compound) was added to the administration end of A to B. • d. 108 μL of transport buffer (HBSS containing DMSO) was added to the receiving end of A to B. • e. incubation was performed for 90 min. • d. a sample was taken, processed and detected with mass spectrometry.
• Instruments: Liquid Chromatography; • Chromatographic column: Waters XSelect HSS T3 2.5 μm (2.1×50 mm); • Mobile phase: Phase A: 0.1% formic acid in pure water; Phase B: 0.1% formic acid in acetonitrile.
• Instruments: AP16500+liquid chromatography-mass spectrometer; • The ion source is electrospray ionization source (ESI); • The detection method is positive ion detection;
The scanning method is selected reaction monitoring (MRM).

Sequence of Recombinant human MALT1/MLT protein (Q9UDY8 whole entry): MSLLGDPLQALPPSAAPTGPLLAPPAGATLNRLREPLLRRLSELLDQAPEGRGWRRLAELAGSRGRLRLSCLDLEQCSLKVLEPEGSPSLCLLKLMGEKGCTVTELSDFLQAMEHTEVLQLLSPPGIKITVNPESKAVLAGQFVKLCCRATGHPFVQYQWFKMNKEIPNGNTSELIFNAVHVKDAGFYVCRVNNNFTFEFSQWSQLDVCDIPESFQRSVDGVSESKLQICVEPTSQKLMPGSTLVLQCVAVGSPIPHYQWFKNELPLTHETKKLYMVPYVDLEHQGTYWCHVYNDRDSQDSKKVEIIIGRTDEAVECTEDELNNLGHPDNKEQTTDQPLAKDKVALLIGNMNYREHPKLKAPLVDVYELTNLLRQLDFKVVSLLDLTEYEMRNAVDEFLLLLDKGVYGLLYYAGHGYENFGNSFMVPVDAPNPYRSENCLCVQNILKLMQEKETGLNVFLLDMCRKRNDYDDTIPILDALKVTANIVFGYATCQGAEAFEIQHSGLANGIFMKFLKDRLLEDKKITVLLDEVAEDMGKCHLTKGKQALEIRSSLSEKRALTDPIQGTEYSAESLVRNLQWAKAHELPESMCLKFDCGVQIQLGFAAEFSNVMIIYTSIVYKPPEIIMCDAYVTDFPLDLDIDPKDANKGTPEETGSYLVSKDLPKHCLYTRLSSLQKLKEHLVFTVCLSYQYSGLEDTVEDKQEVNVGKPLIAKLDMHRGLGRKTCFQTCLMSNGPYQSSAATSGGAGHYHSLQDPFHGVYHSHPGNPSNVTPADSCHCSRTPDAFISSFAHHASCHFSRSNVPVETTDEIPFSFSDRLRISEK

IC50 [1] [nM] | IC50 [2] [nM] | Papp A→B at 90 min, 10 µM [3] [×10⁻⁶ cm/s] | Papp B→A at 90 min, 10 µM [3] [×10⁻⁶ cm/s] | efflux ratio at 90 min, 10 µM [3] | Compound
101 | 25 | 1.58 | 4.68 | 2.95 | O=C(Nc1ccc(-n2nccn2)c(Cl)c1)c1cnn(-c2ccc3c4c(cccc24)C(=O)N3)c1C(F)(F)F [Example 53, N-(3-chloro-4-(2H-1,2,3-triazol-2-yl)phenyl)-1-(2-oxo-1,2-dihydrobenzo[cd]indol-6-yl)-5-(trifluoromethyl)-1H-pyrazole-4-carboxamide]
88 | 24 | – | – | – | O=C(Nc1cnc(-n2nccn2)c(C(F)(F)F)c1)c1cnn(-c2ccc3c4c(cccc24)C(=O)N3)c1C(F)(F)F [Example 18, N-(6-(2H-1,2,3-triazol-2-yl)-5-trifluoromethylpyridin-3-yl)-1-(2-oxo-1,2-dihydrobenzo[cd]indol-6-yl)-5-trifluoromethyl-1H-pyrazole-4-carboxamide]
211 | 171 | 2.09 | 4.08 | 1.97 | O=C(Nc1ccnc(C(F)(F)F)c1)c1cnn(-c2ccc3c4c(cccc24)C(=O)N3)c1C1CC1 [Example 55, 5-cyclopropyl-1-(2-oxo-1,2-dihydrobenzo[cd]indol-6-yl)-N-(2-(trifluoromethyl)pyridin-4-yl)-1H-pyrazole-4-carboxamide]
